# Biological target: T1, human FSH receptor (Homo sapiens, UniProt P23945)
# T1 construct: expressed in transfected cells; host or cells: CHO cells (hFSHR clone 16)
# T1 sequence (P23945 18-695): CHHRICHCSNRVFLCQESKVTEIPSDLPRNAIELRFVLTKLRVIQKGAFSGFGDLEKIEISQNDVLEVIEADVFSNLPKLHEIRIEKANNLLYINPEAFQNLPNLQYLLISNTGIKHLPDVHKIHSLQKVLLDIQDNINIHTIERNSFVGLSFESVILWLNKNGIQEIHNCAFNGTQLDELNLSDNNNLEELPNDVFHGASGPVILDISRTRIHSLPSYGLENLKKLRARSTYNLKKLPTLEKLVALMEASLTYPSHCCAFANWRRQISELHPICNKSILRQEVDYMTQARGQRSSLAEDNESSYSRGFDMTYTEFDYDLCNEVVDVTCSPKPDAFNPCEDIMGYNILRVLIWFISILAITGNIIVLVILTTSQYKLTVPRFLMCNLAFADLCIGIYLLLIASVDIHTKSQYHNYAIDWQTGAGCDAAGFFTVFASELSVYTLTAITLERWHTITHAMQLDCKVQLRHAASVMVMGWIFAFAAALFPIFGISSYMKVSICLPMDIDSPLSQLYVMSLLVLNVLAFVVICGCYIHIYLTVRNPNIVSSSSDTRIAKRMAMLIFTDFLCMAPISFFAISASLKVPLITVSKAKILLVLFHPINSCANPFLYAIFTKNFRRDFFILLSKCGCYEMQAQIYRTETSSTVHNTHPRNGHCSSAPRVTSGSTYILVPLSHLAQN
# Test: HTRF assay for measuring cAMP in cells
# Type: cell-based
# Conditions: hFSHR clone 16 cells (CHO cells stably transfected with the human FSH receptor); in the presence of 1e-9 mol/l hFSH; 37° C. for 2 h; read-out: IC50 (FSH-antagonistic effect in the HTRF assay)
# Method: HTRF Assay for Measuring cAMP in Cells
# The method is based on a competitive immunoassay between native cAMP, which has been produced by the cells, and cAMP which is labelled with XL665. The tracer binding was visualized by a monoclonal antibody, anti-cAMP labelled with cryptate [HTRF=homogeneous time-resolved fluorescence].
# The specific signal is inversely proportional to the cAMP concentration of the samples employed.
# The 665 nm/620 nm fluorescence ratio was evaluated.
# The following material was used: 96-well plates for the tissue culture, 96-well plates with black edge and black base (e.g. Fluotrac 600 from Greiner), 96-well plates for the substance dilutions of polypropylene and cAMP Femtomolar (4000 wells Kit, CIS Bio International # 62AM1PEC).
# The following reagents were used: BSA (bovine serum albumin) Fraction V protease-free, IBMX (3-isobutyl-1-methylxanthine), hFSH (human follicle stimulating hormone), Triton X-100 analytical grade, potassium fluoride analytical grade, G 418 (Geneticin) and Accutase.
# Buffer 1 (washing and testing buffer) contained PBS, 1 mM CaCl2, 1 mM MgCl2, 0.2% glucose; 0.1% BSA, 1 mM IBMX. Buffer 2 (2× lysis buffer) contained 1% Triton X-100 in PBS (without CaCl2 and MgCl2). Buffer 3 (assay buffer) contained 50 mM potassium phosphate buffer (pH 7.0); 800 mM potassium fluoride; 0.2% BSA (always added fresh).
# On day 1, the cells were seeded in 96-well plates (3×10^4 cells per well hFSHR clone 16 cells (CHO cells stably transfected with the human FSH receptor in 150 μl of medium). The next day, test substance dilutions were made up. For this purpose, all the substances were diluted in ice-cold buffer 1 (with or without hFSH), and the substance dilutions were placed on ice until applied to the cells.
# The cell supernatant was then aspirated off, and the cells were washed 2× with 200 μl of buffer 1. The cells were treated with 60 μl of the appropriate substance concentrations at 37° C. for 2 h. The cells were then lysed with 60 μl of buffer 2 (put onto the supernatant) (on a plate shaker at RT for 30 min).
# The test conjugates (XL-665 and anti-cAMP cryptate) were diluted in buffer 3 in accordance with the manufacturers' information. The actual mixture for measurement was pipetted into a black 96-well plate (in each case 15 μl of the cell lysate diluted with 35 μl of buffer 1; firstly 25 μl of XL-665 conjugate were pipetted and, after 10 min, 25 μl of the anti-cAMP cryptate were added). This is followed by incubation at RT for 90 minutes. The measurement was carried out in a PheraStar (BMG).
# Tissue Culture Conditions
# 1) hFSHr clone 16 Ham's F12 • PSG • 10% FCS • 700 μg/ml G 418 (Geneticin) from PAA.
# Dose-effect curve (hFSH) for the human receptor: 1e-8, 3e-9, 1e-9, 3e-10, 1e-10, 3e-11, 1e-11, 3e-12 mol/l.
# The test substances were employed in suitable dilutions in the absence (test for agonism) and in the presence of 1e-9 mol/l hFSH.
# The values of the well ratio were averaged and then entered directly in SigmaPlot versus the concentrations. The maximum and minimum values were determined for each plate, and half the difference is to be regarded as IC50.
row,SMILES,IC50
1,"CC(C)Oc1ccc(C#CCN2CCS(=O)(=O)CC2)cc1C(=O)N[C@@H](CO)Cc1c[nH]c2ccccc12 [Example 5, 5-[3-(1,1-Dioxo-1-lambda*6*-thiomorpho-lin-4-yl)-prop-1-ynyl]-N-[(R)-2-hydroxy-1-(1H-indol-3-ylmethyl)-ethyl]-2-isopropoxy-benzamide]",4500 nM
2,"Cc1ccc(NC(=O)NCC#Cc2ccc(OC(C)C)c(C(=O)N[C@@H](CO)Cc3c[nH]c4ccccc34)c2)cc1 [Example 7, N-[(R)-1-Hydroxy-methyl-2-(1H-indol-3-yl)-ethyl]-2-isopropoxy-5-[3-(3-p-tolyl-ureido)-prop-1-ynyl]-benzamide]",200 nM
3,"CC(C)Oc1ccc(C#CCCCO)cc1C(=O)N[C@@H](CO)Cc1c[nH]c2ccccc12 [Example 8, N-[(R)-1-Hydroxy-methyl-2-(1H-indol-3-yl)-ethyl]-5-(5-hydroxy-pent-1-ynyl)-2-iso-propoxy-benzamide]",500 nM
4,"CC(C)Oc1ccc(C#CC(C)(C)C)cc1C(=O)N[C@@H](CO)Cc1c[nH]c2ccccc12 [Example 3, 5-(3,3-Dimethyl-but-1-ynyl)-N-[(R)-1-hydroxy-methyl-2-(1H-indol-3-yl)-ethyl]-2-isopropoxy-benzamide]",600 nM
5,"CNC(=O)N(C)CC#Cc1ccc(OC(C)C)c(C(=O)N[C@@H](CO)Cc2c[nH]c3ccccc23)c1 [Example 10, 5-[3-(1,3-Dimethyl-ureido)-prop-1-ynyl]-N-[(R)-1-hydroxymethyl-2-(1H-indol-3-yl)-ethyl]-2-isopropoxy-benzamide]",6000 nM
